# What was measured:
# SCD-1 = biological target: T1, SCD-1 (Homo sapiens, UniProt O00767); experiment: Human enzymatic activity of SCD-1 from microsomes of HepG2 cells (conversion of [14C] stearic acid to oleic acid, HPLC); format: biochemical; details: microsomal fraction of HepG2 cells, 62 μM stearic acid, 20 minutes at 37° C., vs vehicle 0.1% DMSO; read-out: HSCD-1 (HEPG2) IC50
# T1 construct: addition of 125 μg of microsomal fraction of HepG2 cells; host or cells: HepG2 human hepatocarcinoma cells (microsomal fraction)
# T1 sequence (O00767 1-359): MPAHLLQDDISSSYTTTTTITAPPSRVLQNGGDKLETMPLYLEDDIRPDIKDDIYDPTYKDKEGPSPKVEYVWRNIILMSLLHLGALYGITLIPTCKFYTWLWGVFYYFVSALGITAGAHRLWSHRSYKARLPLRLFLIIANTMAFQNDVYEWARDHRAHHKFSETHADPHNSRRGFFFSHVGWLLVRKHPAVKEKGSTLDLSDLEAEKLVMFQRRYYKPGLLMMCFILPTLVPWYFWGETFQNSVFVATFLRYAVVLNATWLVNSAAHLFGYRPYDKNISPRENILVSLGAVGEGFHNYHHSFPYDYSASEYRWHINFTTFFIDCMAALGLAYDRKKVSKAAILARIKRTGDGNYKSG
# Experimental: In vitro: Human enzymatic activity of SCD-1 from microsomes of HepG2 cells after treatment with the inhibitor compounds (% inhibition).
# HepG2 cells of human hepatocarcinoma (ATCC, HB-8065) are cultured at confluence then trypsinated. The cell residue is solubilized in 10 mM Tris buffer (pH 7.4) sucrose (250 mM) DTT (1 mM) then the cells are lysed by sonication. The microsomes are obtained after centrifuging at 10,000 g for 20 minutes at 4° C. followed by centifrugation of the supernatant at 100,000 g for 60 minutes at 4° C. The residue is solubilized in 10 mM Tris buffer (pH 7.4) sucrose (250 mM) at 4° C. and the microsomal proteins are assayed and stored at −196° C. (liquid nitrogen).
# The enzymatic reaction measures the conversion of stearic acid (C18:0 fatty acid) into oleic acid (C18:1 fatty acid) by SCD-1. The enzymatic reaction is initiated by the addition of 125 μg of microsomal fraction of HepG2 cells to tubes (total reaction volume of 500 μl) containing 62 μM stearic acid (45 μM stearic acid and 17 μM [^14C] stearic acid) in 100 mM phosphate buffer (pH 7.16) with 7.2 mM ATP, 0.54 mM CoA, 6 mM MgCl2, 0.8 mM NADH and the inhibitor compound or vehicle (0.1% DMSO). The tubes are incubated for 20 minutes at 37° C. then the enzymatic reaction is halted by the addition of KOH (12%) and saponification for 30 minutes at 80° C. After acidification (3N HCl), the fatty acids are extracted twice with ethyl ether, evaporated under nitrogen before being solubilized in methanol/dichloromethane (3:1). The reaction product (C18:1) is separated from the reaction substrate (C18:0) by HPLC (Perkin Elmer, C18 reverse phase column) coupled with an in-line radioactivity detector (FlowOne). Enzymatic activity is measured in picomoles of stearic acid converted to oleic acid per minute and per mg of protein. For each inhibitor compound, an IC50 value is determined, compared with the reference enzymatic activity (vehicle 0.1% DMSO). Sterculic acid is the reference inhibitor compound (Gomez F. E., Bauman D. E., Ntambi J. M., Fox B. G. Effects of sterculic acid on stearoyl-CoA desaturase in differentiating […] adipocytes. Biochem Biophys Res Commun. 300 316-326 (2003).
IC50 (SCD-1) [nM],melting point [°C],SMILES
3000 to 10000,122,"Cn1nccc(NCC(=O)N2CC(Oc3ccccc3C(F)(F)F)C2)c1=O [Example 27, 2-Methyl-4-{2-oxo-2-[3-(2-trifluoromethyl-phenoxy)-azetidin-1-yl]-ethylamino}-2H-pyridazin-3-one]"
100 to 1000,127,"Cn1nccc(NC(=O)N2CCC(Oc3ccc(F)c(C(F)(F)F)c3)CC2)c1=O [Example 60, 4-(4-fluoro-5-trifluoromethyl-phenoxy)-piperidine-1-carboxylic acid (2-methyl-3-oxo-2,3-dihydro-pyridazin-4-yl)-amide]"
10 to 100,155,"Cn1nc(NC(=O)N2CCC(Oc3cc(C(F)(F)F)ccc3Cl)CC2)ccc1=O [Example 74, 4-(2-Chloro-5-trifluoromethyl-phenoxy)-piperidine-1-carboxylic acid (1-methyl-6-oxo-1,6-dihydro-pyridazin-3-yl)-amide]"
300 to 1000,169,"Cn1nccc(NCC(=O)N2CCC(Oc3ccc(Cl)c(Cl)c3)CC2)c1=O [Example 10, 4-{2-[4-(3,4-Dichloro-phenoxy)-piperidin-1-yl]-2-oxo-ethylamino}-2-methyl-2H-pyridazin-3-one]"
10 to 100,136,"Cn1ncc(NC(=O)N2CCC(Oc3cc(C(F)(F)F)ccc3Cl)CC2)cc1=O [Example 73, 4-(2-Chloro-5-trifluoromethyl-phenoxy)-piperidine-1-carboxylic acid (1-methyl-6-oxo-1,6-dihydro-pyridazin-4-yl)-amide]"
10 to 100,143,"Cn1nccc(NC(=O)N2CCC(Oc3cc(F)c(F)cc3Br)CC2)c1=O [Example 71, 4-(2-bromo-4,5-difluoro-phenoxy)-piperidine-1-carboxylic acid (2-methyl-3-oxo-2,3-dihydro-pyridazin-4-yl)-amide]"
~300,182,"Cn1nccc(NCC(=O)N2CCC(CNc3ccccc3C(F)(F)F)CC2)c1=O [Example 31, 2-Methyl-4-(2-oxo-2-{4-[(2-trifluoromethyl-phenylamino)-methyl]-piperidin-1-yl}-ethylamino)-2H-pyridazin-3-one]"
100 to 1000,142,"Cn1nccc(NCC(=O)N2CCC(Oc3ccccc3Cl)CC2)c1=O [Example 7, 4-{2-[4-(2-Chloro-phenoxy)-piperidin-1-yl]-2-oxo-ethylamino}-2-methyl-2H-pyridazin-3-one]"
1000,154,"Cn1nccc(NC(=O)N2CCC(Oc3ccc(Cl)c(Cl)c3)CC2)c1=O [Example 65, 4-(3,4-dichloro-phenoxy)-piperidine-1-carboxylic acid (2-methyl-3-oxo-2,3-dihydro-pyridazin-4-yl)-amide]"
30 to 100,162,"Cn1nccc(NCC(=O)N2CCC(Oc3cc(Cl)ccc3Cl)CC2)c1=O [Example 12, 4-{2-[4-(2,5-Dichloro-phenoxy)-piperidin-1-yl]-2-oxo-ethylamino}-2-methyl-2H-pyridazin-3-one]"
100 to 1000,154,"Cn1nccc(NC(=O)N2CCC(Oc3cc(Cl)c(Cl)cc3Cl)CC2)c1=O [Example 70, 4-(2,4,5-trichloro-phenoxy)-piperidine-1-carboxylic acid (2-methyl-3-oxo-2,3-dihydro-pyridazin-4-yl)-amide]"
1000 to 10000,163,"Cn1ncc(OCC(=O)N2CCC(Oc3cc(Cl)ccc3Cl)CC2)cc1=O [Example 25, 5-{2-[4-(2,5-Dichloro-phenoxy)-piperidin-1-yl]-2-oxo-ethoxy}-2-methyl-2H-pyridazin-3-one]"
100 to 1000,205,"Cn1nccc(NC(=O)C(=O)N2CCC(Oc3cc(C(F)(F)F)ccc3Cl)CC2)c1=O [Example 35, 2-[4-(2-Chloro-5-trifluoromethyl-phenoxy)-piperidin-1-yl]-N-(2-methyl-3-oxo-2,3-dihydro-pyridazin-4-yl)-2-oxo-acetamide]"
100 to 1000,133,"Cc1ccc(Cl)c(OC2CCN(C(=O)Nc3ccnn(C)c3=O)CC2)c1 [Example 56, 4-(2-chloro-5-methyl-phenoxy)-piperidine-1-carboxylic acid (2-methyl-3-oxo-2,3-dihydro-pyridazin-4-yl)-amide]"
30 to 100,137,"Cn1nccc(NCC(=O)N2CCC(Oc3cc(F)c(F)cc3Br)CC2)c1=O [Example 5, 4-{2-[4-(2-Bromo-4,5-difluoro-phenoxy)-piperidin-1-yl]-2-oxo-ethylamino}-2-methyl-2H-pyridazin-3-one]"
30 to 100,148,"Cn1nccc(NC(=O)N2CCC(Oc3cc(C(F)(F)F)ccc3Cl)CC2)c1=O [Example 52, 4-(2-Chloro-5-trifluoromethyl-phenoxy)-piperidine-1-carboxylic acid (2-methyl-3-oxo-2,3-dihydro-pyridazin-4-yl)-amide]"
100 to 1000,138,"Cn1nccc(NC(=O)N2CCC(Oc3cc(F)ccc3F)CC2)c1=O [Example 69, 4-(2,5-difluoro-phenoxy)-piperidine-1-carboxylic acid (2-methyl-3-oxo-2,3-dihydro-pyridazin-4-yl)-amide]"
10 to 100,158,"Cn1nccc(NCC(=O)N2CCC(Oc3cc(C(F)(F)F)ccc3Cl)CC2)c1=O [Example 4, 4-{2-[4-(2-Chloro-5-trifluoromethyl-phenoxy)-piperidin-1-yl]-2-oxo-ethylamino}-2-methyl-2H-pyridazin-3-one]"
100 to 1000,108,"Cc1ccc(C)c(OC2CCN(C(=O)Nc3ccnn(C)c3=O)CC2)c1 [Example 55, 4-(2,5-dimethyl-phenoxy)-piperidine-1-carboxylic acid (2-methyl-3-oxo-2,3-dihydro-pyridazin-4-yl)-amide]"
30,125,"Cn1nccc(NC(=O)N2CCC(Oc3cc(Cl)ccc3Cl)CC2)c1=O [Example 62, 4-(2,5-dichloro-phenoxy)-piperidine-1-carboxylic acid (2-methyl-3-oxo-2,3-dihydro-pyridazin-4-yl)-amide]"
100 to 1000,176,"Cc1ccc(F)cc1OC1CCN(C(=O)CNc2ccnn(C)c2=O)CC1 [Example 14, 4-{2-[4-(5-Fluoro-2-methyl-phenoxy)-piperidin-1-yl]-2-oxo-ethylamino}-2-methyl-2H-pyridazin-3-one]"
3,160,"Cn1nccc(NCC(=O)N2CCC(Oc3cc(Br)ccc3Cl)CC2)c1=O [Example 6, 4-{2-[4-(5-Bromo-2-chloro-phenoxy)-piperidin-1-yl]-2-oxo-ethylamino}-2-methyl-2H-pyridazin-3-one]"
100,159,"Cn1nccc(NCC(=O)N2CCC(Oc3cc(F)ccc3Cl)CC2)c1=O [Example 8, 4-{2-[4-(2-Chloro-5-fluoro-phenoxy)-piperidin-1-yl]-2-oxo-ethylamino}-2-methyl-2H-pyridazin-3-one]"
100 to 1000,60,"COc1cnn(C)c(=O)c1NCC(=O)N1CCC(Oc2cc(C(F)(F)F)ccc2Cl)CC1 [Example 51, 4-{2-[4-(2-Chloro-5-trifluoromethyl-phenoxy)-piperidin-1-yl]-2-oxo-ethylamino}-5-methoxy-2-methyl-2H-pyridazin-3-one]"
100 to 1000,140,"Cn1nccc(NC(=O)N2CCC(Oc3ccc(Cl)cc3Cl)CC2)c1=O [Example 66, 4-(2,4-dichloro-phenoxy)-piperidine-1-carboxylic acid (2-methyl-3-oxo-2,3-dihydro-pyridazin-4-yl)-amide]"
